Reference: patent publication US5252495A, “Immunoassay for physostigmine” (priority 1992, dated 1993)
Read-outs that look alike come from different tables or passages of the source.

Assays:
[1] = Physostigmine pharmacokinetics and tissue concentrations in rats after intramuscular administration; assay type: in vivo, Male Sprague-Dawley rats; details: 0.3 mg/kg intramuscular; for concentration at 0.5 h: 30 min; for concentration at 0.75 h: 45 min; for concentration at 1 h: 60 min; for concentration at 1.5 h: 90 min; for concentration at 2 h: 120 min
Experimental: To study the pharmakinetics of physostigmine and validate the RIA and the antibody specificity of the present invention, rat studies were conducted. Male Sprague-Dawley rats weighing approximately 500 grams were housed two per cage at 23° C. with a twelve hour on-off light cycle. The animals were given food and water ad libitum. After sixty days, food was withheld for twelve hours. Physostigmine, comprised of a physostigmine base dissolved in a small volume of dilute hydrochloric acid and then diluted with phosphate buffered saline, with the pH of the solution adjusted to 6.0 was administered (0.3 mg. of the physostigmine solution/Kg) intramuscularly to the rats. Groups of three animals were sacrificed by using inhalation anesthetic, Fluothane (0.01% thymol, w/w; and 0.00025% ammonia, w/w) Ayerst Laboratories, New York, […] Blood, collected via heart puncture, and tissue samples were taken. Brain, fat, heart, muscle and spleen were removed and frozen on dry ice immediately. On the date of analysis the plasma and tissue samples were thawed. The tissues were weighed and homogenized with an equal volume of cold solution of 10 mM EDTA, 150 mM NaCl and 0.5% triton X-100, pH 7.4. The suspension Was centrifuged at 15,000×g in a Sorvall RC-5B centrifuge (Dupont) for 30 min at 4° C. The supernatent was collected and the pellet was Washed and centrifuged. The supernatants were combined and filtered through 1 um pore size filters (RC 60, 9 mm diameter from Schleicher and Schuell Inc., Keene, N.H.) and 100 ul of the filtrate was injected into the HPLC column.
The blood and tissue samples were used to determine the concentration of physostigmine as a function of time. FIG. 3 gives the physostigmine level in the plasma of three male rats for each time interval as determined by the RIA of the present invention, while Table 4 presents the concentration of physostigmine in various organs as a function of time.

[2] = cited from earlier work
[3] = target: Antibody from Mannich Immunogen; assay: RIA cross-reactivity: competition with labeled physostigmine for antibody from Mannich immunogen; assay type: binding, New Zealand white rabbits; details: 1:100, max 1000 ng tested
Experimental: Antibodies to the physostigmine-BSA immunogen were produced by injecting male New Zealand white rabbits with immunogens formed by either method. Prior to injection, the immunogen was emulsified with an equal volume of complete Freund's adjuvant, purchased from Difco Laboratories of Detroit, Mich. The initial immunization consisted of 0.8 mg of protein injected intracutaneously in multiple dorsal sites of the rabbits. Booster injections containing 0.8 mg of immunogen and incomplete Freund's adjuvant were administered every two months for the next six months. Antisera was collected one week after each booster injection from the central ear vein. The blood was allowed to clot at room temperature and then centrifuged at 1500×g for 15 minutes. The separated serum was stored frozen at -20° C. until assayed for the presence of physostigmine antibody.
In the assay procedure ^3 H-Physostigmine having specificity of 19.0 Ci/mmole and purchased from the Amersham Corp. of Arlington Heights, Ill., was used as tracer. […] Both standard and sample tubes were always analyzed in duplicate. The assay was carried out according to the protocol shown in Table 1 with the reagents were added to the assay tubes in the order shown.
According to the protocol for the RIA of the present invention, after the addition of antisera, the contents of the tubes were mixed and incubated for 3 hours at 4° C. The antigen which bound to the antibody was separated by adding saturated ammonium sulfate and centrifuging at 2500×g for 15 minutes. After aspiration of the supernatant, the precipitate was washed one time with 50% saturated ammonium sulfate; then the mixture was centrifuged and the supernatent removed. The precipitate was dissolved in 1.0 ml of distilled water, and the solution was transferred to a scintillation vial containing 10.0 ml of acquasol 2.
The radioactivity which was bound to the antibody was determined in counts per minute with a Beckman LS-3133P Liquid Scintillation Counter. […] The concentration of physostigmine is plotted on the horizontal axis, while the percent inhibition of binding radioactively labeled is plotted on the vertical axis. […] Concentrations of physostigmine in unknown samples were determined according to conventional calculations from the standard curve.
Competition of the compounds with labeled physostigmine (5000 dpm) for antibody binding sites was determined arbitrarily at 50% inhibition of the physostigmine on the standard curve. Each compound was tested for cross-reactivity with the antibody. The maximum concentration of each compound tested was 1000 ng.

[4] = rat, brain, im, read-out: Tissue concentration of physostigmine, Brain
[5] = rat, fat, im, read-out: Tissue concentration of physostigmine, Fat
[6] = rat, heart, im, read-out: Tissue concentration of physostigmine, Heart
[7] = rat, muscle, im, read-out: Tissue concentration of physostigmine, Muscle
[8] = rat, spleen, im, read-out: Tissue concentration of physostigmine, Spleen

CNC(=O)Oc1ccc2c(c1)[C@]1(C)CCN(C)[C@@H]1N2C [Physostigmine, physostigmine]
Tissue concentration of physostigmine, Brain ([1]; 180 min): 0.00 ng/g
Tmax ([1]; im, rat, spleen, read-out: time during which spleen levels continued to increase (converted)): 20 min
estimated plasma half-life during the rapid decline phase ([1]; rat): approximately 15 min
time until present in all of the tissues studied ([1]; rat): ≤ 2.5 min
tissue distribution ([1]; rat): rapidly distributed to central as well as peripheral tissues
tissues with highest tissue concentrations ([1]; rat): heart and spleen
concentration at 2.5 min [1, 4]: 331 ng/g
concentration at 5 min [1, 4]: 297 ng/g
concentration at 10 min [1, 4]: 292 ng/g
concentration at 20 min [1, 4]: 198 ng/g
concentration at 0.5 h [1, 4]: 173 ng/g
concentration at 0.75 h [1, 4]: 45.6 ng/g
concentration at 1 h [1, 4]: 15.7 ng/g
concentration at 1.5 h [1, 4]: 3.05 ng/g
concentration at 2 h [1, 4]: 0.53 ng/g
concentration at 2.5 min [1, 5]: 230 ng/g
concentration at 5 min [1, 5]: 533 ng/g
concentration at 10 min [1, 5]: 398 ng/g
concentration at 20 min [1, 5]: 360 ng/g
concentration at 0.5 h [1, 5]: 292 ng/g
concentration at 0.75 h [1, 5]: 95 ng/g
concentration at 1 h [1, 5]: 86.3 ng/g
concentration at 1.5 h [1, 5]: 80.5 ng/g
concentration at 2 h [1, 5]: 58.6 ng/g
concentration at 3 h ([1]; rat, fat, im, 180 min, read-out: Tissue concentration of physostigmine, Fat): 10.3 ng/g
concentration at 2.5 min [1, 6]: 332 ng/g
concentration at 5 min [1, 6]: 785 ng/g
concentration at 20 min [1, 6]: 371 ng/g
concentration at 0.5 h [1, 6]: 213 ng/g
concentration at 0.75 h [1, 6]: 79.2 ng/g
concentration at 1 h [1, 6]: 78.5 ng/g
concentration at 1.5 h [1, 6]: 66.9 ng/g
concentration at 2 h [1, 6]: 47.2 ng/g
concentration at 3 h ([1]; rat, heart, im, 180 min, read-out: Tissue concentration of physostigmine, Heart): 48.7 ng/g
concentration at 2.5 min [1, 7]: 321 ng/g
concentration at 5 min [1, 7]: 225 ng/g
concentration at 10 min [1, 7]: 540 ng/g
concentration at 20 min [1, 7]: 323 ng/g
concentration at 0.5 h [1, 7]: 243 ng/g
concentration at 0.75 h [1, 7]: 241 ng/g
concentration at 1 h [1, 7]: 86 ng/g
concentration at 1.5 h [1, 7]: 70 ng/g
concentration at 2 h [1, 7]: 35 ng/g
concentration at 3 h ([1]; rat, muscle, im, 180 min, read-out: Tissue concentration of physostigmine, Muscle): 37.5 ng/g
concentration at 2.5 min [1, 8]: 322 ng/g
concentration at 5 min [1, 8]: 627 ng/g
concentration at 10 min [1, 8]: 955 ng/g
concentration at 20 min [1, 8]: 986 ng/g
concentration at 0.5 h [1, 8]: 912 ng/g
concentration at 0.75 h [1, 8]: 835 ng/g
concentration at 1 h [1, 8]: 540 ng/g
concentration at 1.5 h [1, 8]: 358 ng/g
concentration at 2 h [1, 8]: 227 ng/g
concentration at 3 h ([1]; rat, spleen, im, 180 min, read-out: Tissue concentration of physostigmine, Spleen): 55.6 ng/g
lipid solubility [2]: high degree of lipid solubility
solubility in biological fluids [2]: soluble in biological fluids
IC50 (50% inhibition of binding of 3H-physostigmine) [3]: 1.35 ng
